# Tested on: HT-1080 cells
# Test: Metabolite profiling (LC-MS/MS) upon erastin treatment
# Assay type: cell-based, human
# Details: 5 μg/mL erastin 5 h
# Method: 2 million HT-1080 cells were seeded in 10 cm culture dishes. […] 4 mL of cold 80% methanol was added to the cell monolayer to extract polar metabolites using a cell scraper. The cell lysate/methanol mixture was transferred to a 15 mL tube and centrifuged at 2,000×g at 4° C. for 10 minutes to pellet debris and proteins. The supernatant was transferred to a new tube and stored at −80° C. for liquid chromatography-mass spectrometry/mass spectrometry (LC-MS/MS) analysis. For lipid extract preparation, 3 mL of cold 100% isopropanol was added to the cell monolayer to scrape out cells. The resulting cell lysate/isopropanol mixture was transferred to a new 15 mL tube and centrifuged at 2,000×g at 4° C. for 10 minutes. The cleared supernatant was transferred to a new tube and stored at −20° C. for LC-MS/MS analysis.
# The metabolite extract was subjected to LC-MS/MS analysis to determine the quantity of each metabolite in each sample.
smiles,measurement,value
CCOc1ccccc1-n1c(C(C)N2CCN(C(=O)COc3ccc(Cl)cc3)CC2)nc2ccccc2c1=O (stereo not drawn) [erastin],G6P Erastin/DMSO,1.134
same,G6P log2 (Erastin/DMSO),0.181
same,GABA Erastin/DMSO,1.173
same,GABA log2 (Erastin/DMSO),0.2297
same,GDP Erastin/DMSO,0.8497
same,GDP log2 (Erastin/DMSO),−0.235
same,GMP Erastin/DMSO,1.066
same,GMP log2 (Erastin/DMSO),0.09204
same,IMP Erastin/DMSO,1.065
same,IMP log2 (Erastin/DMSO),0.09035
same,N-carbomoyl-beta-alanine Erastin/DMSO,0.7958
same,N-carbomoyl-beta-alanine log2 (Erastin/DMSO),−0.3296
same,NAD Erastin/DMSO,0.9157
same,NAD log2 (Erastin/DMSO),−0.127
same,NADH Erastin/DMSO,0.8051
same,NADH log2 (Erastin/DMSO),−0.3128
same,NMMA Erastin/DMSO,0.9886
same,NMMA log2 (Erastin/DMSO),−0.01661
same,OH-phenylpyruvate Erastin/DMSO,0.8442
same,OH-phenylpyruvate log2 (Erastin/DMSO),−0.2443
same,PEP Erastin/DMSO,1.147
same,PEP log2 (Erastin/DMSO),0.1975
same,SDMA Erastin/DMSO,0.9505
same,SDMA log2 (Erastin/DMSO),−0.07329
same,UDP Erastin/DMSO,1.002
same,UDP log2 (Erastin/DMSO),0.002894
same,UDP-galactose/UDP-glucose Erastin/DMSO,0.9003
same,UDP-galactose/UDP-glucose log2 (Erastin/DMSO),−0.1516
same,UDP-glucuronate Erastin/DMSO,0.9339
same,UDP-glucuronate log2 (Erastin/DMSO),−0.09865
same,UMP Erastin/DMSO,1.049
same,UMP log2 (Erastin/DMSO),0.06891
same,XMP Erastin/DMSO,0.8599
same,XMP log2 (Erastin/DMSO),−0.2178
same,acetylcholine Erastin/DMSO,0.8307
same,acetylcholine log2 (Erastin/DMSO),−0.2676
same,aconitate Erastin/DMSO,1.036
same,aconitate log2 (Erastin/DMSO),0.05158
same,adenine Erastin/DMSO,1.254
same,adenine log2 (Erastin/DMSO),0.3261
same,adenosine Erastin/DMSO,1.376
same,adenosine log2 (Erastin/DMSO),0.4605
same,adipate Erastin/DMSO,1.091
same,adipate log2 (Erastin/DMSO),0.1256
same,alanine Erastin/DMSO,1.061
same,alanine log2 (Erastin/DMSO),0.0857
same,allantoin Erastin/DMSO,0.9512
same,allantoin log2 (Erastin/DMSO),−0.07213
same,alpha-glycerophosphate Erastin/DMSO,0.7556
same,alpha-glycerophosphate log2 (Erastin/DMSO),−0.4043
same,alpha-glycerophosphocholine Erastin/DMSO,0.2194
same,alpha-glycerophosphocholine log2 (Erastin/DMSO),−2.188
same,alpha-ketoglutarate Erastin/DMSO,0.9867
same,alpha-ketoglutarate log2 (Erastin/DMSO),−0.01926
same,arginine Erastin/DMSO,0.9866
same,arginine log2 (Erastin/DMSO),−0.01943
same,ascorbate Erastin/DMSO,1.196
same,ascorbate log2 (Erastin/DMSO),0.2586
same,asparagine Erastin/DMSO,1.069
same,asparagine log2 (Erastin/DMSO),0.09662
same,aspartate Erastin/DMSO,1.017
same,aspartate log2 (Erastin/DMSO),0.02452
same,betaine Erastin/DMSO,0.9528
same,betaine log2 (Erastin/DMSO),−0.06976
same,cAMP Erastin/DMSO,1.266
same,cAMP log2 (Erastin/DMSO),0.3404
same,carnitine Erastin/DMSO,0.802
same,carnitine log2 (Erastin/DMSO),−0.3183
same,carnosine Erastin/DMSO,0.9657
same,carnosine log2 (Erastin/DMSO),−0.0503
same,choline Erastin/DMSO,0.8139
same,choline log2 (Erastin/DMSO),−0.2971
same,cis/trans hydroxyproline Erastin/DMSO,1.099
same,cis/trans hydroxyproline log2 (Erastin/DMSO),0.1366
same,citrate Erastin/DMSO,0.974
same,citrate log2 (Erastin/DMSO),−0.03805
same,citrulline Erastin/DMSO,1.036
same,citrulline log2 (Erastin/DMSO),0.05057
same,cotinine Erastin/DMSO,0.9037
same,cotinine log2 (Erastin/DMSO),−0.146
same,creatine Erastin/DMSO,0.8675
same,creatine log2 (Erastin/DMSO),−0.205
same,creatinine Erastin/DMSO,0.972
same,creatinine log2 (Erastin/DMSO),−0.04091
same,cystamine Erastin/DMSO,1.09
same,cystamine log2 (Erastin/DMSO),0.1248
same,cystathionine Erastin/DMSO,1.263
same,cystathionine log2 (Erastin/DMSO),0.3368
same,cytidine Erastin/DMSO,6.079
same,cytidine log2 (Erastin/DMSO),2.604
same,cytosine Erastin/DMSO,0.8863
same,cytosine log2 (Erastin/DMSO),−0.1741
same,dCMP Erastin/DMSO,0.9184
same,dCMP log2 (Erastin/DMSO),−0.1228
same,dGMP Erastin/DMSO,1.052
same,dGMP log2 (Erastin/DMSO),0.07275
same,dTMP Erastin/DMSO,0.6985
same,dTMP log2 (Erastin/DMSO),−0.5178
same,dUMP Erastin/DMSO,0.6787
same,dUMP log2 (Erastin/DMSO),−0.5592
same,dimethylglycine Erastin/DMSO,0.9338
same,dimethylglycine log2 (Erastin/DMSO),−0.09885
same,folate Erastin/DMSO,1.032
same,folate log2 (Erastin/DMSO),0.04552
same,fumarate Erastin/DMSO,0.9822
same,fumarate log2 (Erastin/DMSO),−0.02598
same,glucose Erastin/DMSO,0.9717
same,glucose log2 (Erastin/DMSO),−0.04147
same,glucose/fructose/galactose Erastin/DMSO,1.011
same,glucose/fructose/galactose log2 (Erastin/DMSO),0.01526
same,glucuronate Erastin/DMSO,0.61
same,glucuronate log2 (Erastin/DMSO),−0.7132
same,glutamate Erastin/DMSO,1.019
same,glutamate log2 (Erastin/DMSO),0.02762
same,glutamine Erastin/DMSO,1.015
same,glutamine log2 (Erastin/DMSO),0.02096
same,glutathione oxidized Erastin/DMSO,0.3235
same,glutathione oxidized log2 (Erastin/DMSO),−1.628
same,glutathione reduced Erastin/DMSO,0.007019
same,glutathione reduced log2 (Erastin/DMSO),−7.154
same,glyceraldehyde-3-phosphate Erastin/DMSO,1.192
same,glyceraldehyde-3-phosphate log2 (Erastin/DMSO),0.2529
same,glycerol Erastin/DMSO,1.058
same,glycerol log2 (Erastin/DMSO),0.08176
same,glycine Erastin/DMSO,0.9723
same,glycine log2 (Erastin/DMSO),−0.04055
same,glycochenodeoxycholate Erastin/DMSO,1.067
same,glycochenodeoxycholate log2 (Erastin/DMSO),0.09335
same,glycocholate Erastin/DMSO,0.9975
same,glycocholate log2 (Erastin/DMSO),−0.003654
same,glycodeoxycholate Erastin/DMSO,1.054
same,glycodeoxycholate log2 (Erastin/DMSO),0.07552
same,guanosine Erastin/DMSO,4.51
same,guanosine log2 (Erastin/DMSO),2.173
same,hippurate Erastin/DMSO,1.005
same,hippurate log2 (Erastin/DMSO),0.007657
same,histamine Erastin/DMSO,0.9526
same,histamine log2 (Erastin/DMSO),−0.07002
same,histidine Erastin/DMSO,0.9779
same,histidine log2 (Erastin/DMSO),−0.03228
same,hydroxyphenylacetate Erastin/DMSO,1.024
same,hydroxyphenylacetate log2 (Erastin/DMSO),0.03431
same,hypoxanthine Erastin/DMSO,0.9819
same,hypoxanthine log2 (Erastin/DMSO),−0.02629
same,indoxylsulfate Erastin/DMSO,0.7913
same,indoxylsulfate log2 (Erastin/DMSO),−0.3377
same,inosine Erastin/DMSO,1.867
same,inosine log2 (Erastin/DMSO),0.9005
same,isocitrate Erastin/DMSO,1.051
same,isocitrate log2 (Erastin/DMSO),0.07189
same,isoleucine Erastin/DMSO,0.9526
same,isoleucine log2 (Erastin/DMSO),−0.07
same,isomer_of_erythrose-4-phosphate Erastin/DMSO,0.5887
same,isomer_of_erythrose-4-phosphate log2 (Erastin/DMSO),−0.7644
same,kynurenic acid Erastin/DMSO,0.8322
same,kynurenic acid log2 (Erastin/DMSO),−0.265
same,kynurenine Erastin/DMSO,1.04
same,kynurenine log2 (Erastin/DMSO),0.05699
same,lactate Erastin/DMSO,0.884
same,lactate log2 (Erastin/DMSO),−0.1779
same,leucine Erastin/DMSO,0.9497
same,leucine log2 (Erastin/DMSO),−0.07444
same,lysine Erastin/DMSO,0.9654
same,lysine log2 (Erastin/DMSO),−0.05081
same,malate Erastin/DMSO,1.143
same,malate log2 (Erastin/DMSO),0.1934
same,maleate/3-methyl-2-oxobutanoate Erastin/DMSO,0.9484
same,maleate/3-methyl-2-oxobutanoate log2 (Erastin/DMSO),−0.07647
same,malonate Erastin/DMSO,1.025
same,malonate log2 (Erastin/DMSO),0.03595
same,methionine Erastin/DMSO,0.9702
same,methionine log2 (Erastin/DMSO),−0.04361
same,niacinamide Erastin/DMSO,0.9289
same,niacinamide log2 (Erastin/DMSO),−0.1065
same,nicotinate Erastin/DMSO,1.085
same,nicotinate log2 (Erastin/DMSO),0.1179
same,ornithine Erastin/DMSO,0.9482
same,ornithine log2 (Erastin/DMSO),−0.07676
same,orotate Erastin/DMSO,1.138
same,orotate log2 (Erastin/DMSO),0.1864
same,oxalate Erastin/DMSO,1.019
same,oxalate log2 (Erastin/DMSO),0.02659
same,pantothenate Erastin/DMSO,1.194
same,pantothenate log2 (Erastin/DMSO),0.2564
same,phenylacetylglycine Erastin/DMSO,1.135
same,phenylacetylglycine log2 (Erastin/DMSO),0.1828
same,phenylalanine Erastin/DMSO,1.005
same,phenylalanine log2 (Erastin/DMSO),0.007013
same,phosphocholine Erastin/DMSO,0.5252
same,phosphocholine log2 (Erastin/DMSO),−0.9291
same,phosphocreatine Erastin/DMSO,1.173
same,phosphocreatine log2 (Erastin/DMSO),0.2302
same,phosphoglycerate Erastin/DMSO,0.9848
same,phosphoglycerate log2 (Erastin/DMSO),−0.02206
same,phosphotyrosine Erastin/DMSO,0.6533
same,phosphotyrosine log2 (Erastin/DMSO),−0.6143
same,pimelate/3-methyladipate Erastin/DMSO,1.021
same,pimelate/3-methyladipate log2 (Erastin/DMSO),0.03006
same,proline Erastin/DMSO,1.086
same,proline log2 (Erastin/DMSO),0.1195
same,proprionate Erastin/DMSO,1.092
same,proprionate log2 (Erastin/DMSO),0.1269
same,pyruvate Erastin/DMSO,1.283
same,pyruvate log2 (Erastin/DMSO),0.3592
same,quinolinate Erastin/DMSO,1.015
same,quinolinate log2 (Erastin/DMSO),0.02178
same,ribose-5-P Erastin/DMSO,1.113
same,ribose-5-P log2 (Erastin/DMSO),0.155
same,ribulose-5-P Erastin/DMSO,1.051
same,ribulose-5-P log2 (Erastin/DMSO),0.07112
same,salicylurate Erastin/DMSO,0.9637
same,salicylurate log2 (Erastin/DMSO),−0.05339
same,sebacate Erastin/DMSO,0.9419
same,sebacate log2 (Erastin/DMSO),−0.08641
same,serine Erastin/DMSO,1.053
same,serine log2 (Erastin/DMSO),0.07514
same,serotonin Erastin/DMSO,0.7924
same,serotonin log2 (Erastin/DMSO),−0.3357
same,sorbitol Erastin/DMSO,0.9709
same,sorbitol log2 (Erastin/DMSO),−0.04258
same,suberate Erastin/DMSO,1.003
same,suberate log2 (Erastin/DMSO),0.004641
same,succinate/methylmalonate Erastin/DMSO,1.008
same,succinate/methylmalonate log2 (Erastin/DMSO),0.01178
same,sucrose Erastin/DMSO,1.408
same,sucrose log2 (Erastin/DMSO),0.4939
same,taurine Erastin/DMSO,0.8259
same,taurine log2 (Erastin/DMSO),−0.276
same,taurochenodeoxycholate Erastin/DMSO,1.181
same,taurochenodeoxycholate log2 (Erastin/DMSO),0.2399
same,taurocholate Erastin/DMSO,1.108
same,taurocholate log2 (Erastin/DMSO),0.1484
same,taurodeoxycholate Erastin/DMSO,1.168
same,taurodeoxycholate log2 (Erastin/DMSO),0.2237
same,taurolithocholate Erastin/DMSO,1.093
same,taurolithocholate log2 (Erastin/DMSO),0.1287
same,thiamine Erastin/DMSO,0.9385
same,thiamine log2 (Erastin/DMSO),−0.09157
same,threonine Erastin/DMSO,0.9924
same,threonine log2 (Erastin/DMSO),−0.01095
same,thymidine Erastin/DMSO,1.402
same,thymidine log2 (Erastin/DMSO),0.4879
same,thymine Erastin/DMSO,1.257
same,thymine log2 (Erastin/DMSO),0.3302
same,thyroxine Erastin/DMSO,0.8859
same,thyroxine log2 (Erastin/DMSO),−0.1748
same,triiodothyronine Erastin/DMSO,0.8066
same,triiodothyronine log2 (Erastin/DMSO),−0.31
same,trimethylamine-N-oxide Erastin/DMSO,1.222
same,trimethylamine-N-oxide log2 (Erastin/DMSO),0.2895
same,tryptophan Erastin/DMSO,0.9911
same,tryptophan log2 (Erastin/DMSO),−0.01285
same,tyrosine Erastin/DMSO,0.9821
same,tyrosine log2 (Erastin/DMSO),−0.02607
same,urate Erastin/DMSO,1.018
same,urate log2 (Erastin/DMSO),0.0257
same,uridine Erastin/DMSO,4.369
same,uridine log2 (Erastin/DMSO),2.127
same,valine Erastin/DMSO,0.9822
same,valine log2 (Erastin/DMSO),−0.02594
same,xanthine Erastin/DMSO,1.027
same,xanthine log2 (Erastin/DMSO),0.03817
same,xanthosine Erastin/DMSO,0.98
same,xanthosine log2 (Erastin/DMSO),−0.02909
